What was measured:
[1] = tested on: Oct-4 expression, primary human lung cells; test: Quantitative RT-PCR of Oct-4 in primary human lung cells grown with VPA; assay type: cell-based; conditions: 5 mM VPA, three days, p<0.01
Method: (§1) Cell culture. Primary human lung cells were purchased from Cell Applications (San Diego, Calif.), and were maintained at 37° C. in 95% humidity and 5% CO2 in Dulbecco's modified eagle medium (DMEM, Hyclone) containing 10% fetal bovine serum (FBS, Hyclone) and 0.5% penicillin and streptomycin. Cells were grown in the presence of 1 mM VPA, 5 mM VPA or in the absence of VPA for three days.
Quantitative RT-PCR. Expression of Oct-4 and Nanog were determined by real-time RT-PCR for each culture condition (0 mM VPA, 1 mM VPA, and 5 mM VPA). Briefly, total RNA was prepared from cultures using Trizol Reagent (Life Technologies, Gaithersburg, Md.) and RNeasy Mini kit (Qiagen; Valencia, Calif.) with DNase I digestion according to manufacturer's protocol. Total RNA (1 μg) from each sample was subjected to oligo(dT)-primed reverse transcription (Invitrogen; Carlsbad, Calif.). Real-time PCR reactions will be performed with PCR master mix on a 7300 real-time PCR system (Applied Biosystems; Foster City, Calif.). For each sample, 1 μl of diluted cDNA (1:10) will be added as template in PCR reactions. The expression level of Oct-4 and Nanog was normalized to GAPD.

[2] = tested on: HDAC and DNMT1 gene expression, BJ dermal fibroblasts; test: VPA effect on HDAC and DNMT1 gene expression in BJ dermal fibroblasts (FIG. 18); assay type: cell-based, human; conditions: 500 μM VPA, 7 days, BJFs; HDAC1 p<0.01, SIRT4 p 0.05, DNMT1 p<0.005
Method: FIG. 18 is a bar graph reporting the effects of VPA (500 μM) on HDAC and DNMT1 gene expression in BJ dermal fibroblasts (obtained from ATCC).
FIG. 18 reports the effects of 500 μM VPA on HDAC and DNMT1 gene expression in BJFs. Cells were exposed to VPA for 7 days. […] Statistical significance was as follows: HDAC1 (p<0.01); SIRT4 (p, 0.05) and DNMT1 (p<0.005).

[3] = tested on: stemness genes, primary human lung cells; test: Human Embryonic Taqman Low Density Array (TLDA) analysis of stemness genes in VPA-treated cells; assay type: cell-based; conditions: 5 mM VPA, three days
Method: as §1
Embryonic Taqman Low Density Array Analysis. Expression levels of several genes that contribute to a cell being pluripotentail (“stemness genes”) were determined using the Human Embryonic Taqman Low Density Array Analysis (TLDA). Several stemness genes were analyzed: GABRB3, LEFTB, NR6A1, PODXL, and PTEN. In addition, the expression level of the DNA methyl transferase DNMT3B was determined. The Applied Biosystems Human Embryonic TLDA, which contains 90 embryonic stem cell and developmental genes and 6 endogenous control genes, was used for quantitative real time RT-PCR to quantify relative expression levels (Applied Biosytems, Foster City, Calif.). Briefly, following reverse-transcription of RNA using the ABI High Capacity cDNA Reverse Transcription Kit (ABI; Foster City, Calif.), 150 ng sample cDNA in 50 μl nuclease-free water+50 μl ABI Universal Taqman 2×PCR Master Mix was pipetted into each port of the TLDA microfluidic card, and analyzed on the ABI 7900HT Fast Real Time PCR System. The ^ΔΔCT method was used to calculate relative quantities (fold change) in gene expression levels in treated cells relative to untreated control cells. The treated cells may also be compared to federally-approved human embryonic stem cells.

[4] = tested on: Sox-2 and Nanog gene expression, human dermal fibroblasts; test: VPA effect on Sox-2 and Nanog gene expression in human dermal fibroblasts (FIG. 17); assay type: cell-based; conditions: VPA 5 mM, 4-6 days, multiple dermal fibroblast cell types
Method: FIG. 17 is a bar graph reporting the effects of VPA (5 mM) on gene expression of Oct-4, Sox-2 and Nanog in human dermal fibroblasts. Significance relative to control within each cell type: *p<0.05; **p<0.03; and ***p<0.01.
Quantitative RT-PCR. Expression of Oct-4 was determined by real-time RT-PCR. Briefly, total RNA was prepared from cultures using Trizol Reagent (Life Technologies, Gaithersburg, Md.) and RNeasy Mini kit (Qiagen; Valencia, Calif.) with DNase I digestion according to manufacturer's protocol. Total RNA (1 μg) from each sample was subjected to oligo(dT)-primed reverse transcription (Invitrogen; Carlsbad, Calif.). Real-time PCR reactions will be performed with PCR master mix on a 7300 real-time PCR system (Applied Biosystems; Foster City, Calif.). For each sample, 1 μl of diluted cDNA (1:10) will be added as template in PCR reactions. The expression level of Cot-4 was normalized to glyceraldehyde 3-phosphate-dehydrogenase (GAPD).
Pluripotency gene expression was increased in multiple dermal fibroblast cell types following exposure to VPA for 4-6 days. mRNA levels were determined by real time qRT-PCR and normalized with GAPDH.

[5] = tested on: Oct-4 gene expression, HLFf; test: Small molecules, Oct-4 gene expression by qRT-PCR (Table III), HLFf; assay type: cell-based, human; conditions: dose 5 mM, Rx Time 5
[6] = tested on: first exon of the Oct-4 gene; test: Bisulfite sequencing of the Oct-4 promoter/first exon; assay type: cell-based; conditions: VPA-treated primary human lung cells
Method: as §1
Bisulfite Sequencing. Bisulfite sequencing is the use of bisulfite treatment of DNA to determine the pattern of methylation. Bisulfite sequencing is based on the fact that treatment of DNA with bisulfite converts cytosine residues to uracil, but leaves 5-methylcytosine residues unaffected. Bisulfite treatment thus introduces specific changes in the DNA sequence that depend on the methylation status of individual cytosine residues, yielding very high-resolution information about the methylation status of a segment of DNA.
Methylation of pluripotent gene promoters was analyzed by bisulfite sequencing. Briefly, DNA was purified by phenolchloroform-isoamylalcohol extraction. Bisulfite conversion was performed using the EZ DNA Methylation kit following the manufacturer's protocol (Zymo Research; Orange, Calif.). The conversion rate of all cytosines in non-CpG dinucleotides to uracils was 100%. Converted DNA was amplified by PCR using primers for human Oct3/4, Nanog, and SOX2. […]

[7] = tested on: Oct-4 gene expression, HLFa; test: Small molecules, Oct-4 gene expression by qRT-PCR (Table III), HLFa; assay type: cell-based, human; conditions: dose 5 mM, Rx Time 5

For CCCC(CCC)C(=O)O [VPA, valproic acid], which “expression of Oct4 up-regulated compared to control cells” value [1] is on record?
Its value is about 2.7 fold.

What about the “HDAC1, SIRT4 and DNMT1 gene expression compared to control cells” value [2] of the same molecule?
Its value is “significantly u-regulated”.

And the “expression of DNA methyltransferase DNMT3B” value [3]?
Its value is “down-regulated”.

And the “stemness-related genes not detected in control cells (FOXD3, NR5A2, TERT, LIFR, SFRP2, TFCP2L1, LIN28, SOX2, XIST)” value [3]?
Its value is “induced”.

And the “expression of stemness genes GABRB3, LEFTB, NR6A1, PODXL, PTEN” value ([3]; n=three replicates)?
The value was “up-regulation”.

What about the “expression of Sox-2 and Nanog” value [4] of the same molecule?
Its value is “increase in expression”.

What about the “Oct4 FC” value [5] of the same molecule?
The value was 5.

What about the “methylation of cytosines in the first exon of Oct-4” value [6] of the same molecule?
Its value is “demethylation of two cytosines”.

What about the “Oct4 FC” value [7] of the same molecule?
Its value is 4.

— patent US20110059526A1, “REPROGRAMMING A CELL BY INDUCING A PLURIPOTENT GENE THROUGH USE OF AN HDAC MODULATOR” (NUPOTENTIAL, INC., priority 2008, published 2011)
